As a reminder, the IC50 is the midpoint of a concentration-inhibition curve.

Structures are written as SMILES. Active and inactive are the calls of the source. No cut-off for these calls is given here.

The values that follow come from ChEMBL document CHEMBL3817761, “Chenopodium album metabolites act as dual topoisomerase inhibitors and induce apoptosis in the MCF7 cell line” (Medchemcomm, 2016).

The test system of test [1] is MCF7. Description: Cytotoxicity against human MCF7 cells assessed as reduction in cell viability after 72 hrs by MTT assay. To be noted: MCF7, 72 h. In kind it is functional, cell-based. (In general: Formazan colour is commonly taken as a measure of viable cells.)
Test [2] is described as follows: Cytotoxicity against human SKBR3 cells assessed as reduction in cell viability after 72 hrs by MTT assay. Format: functional, cell-based. As to conditions: SK-BR-3, 72 h.
The nature of test [3]: Cytotoxicity against human HCT116 cells assessed as reduction in cell viability after 72 hrs by MTT assay. Format: functional, cell-based. To be noted: HCT-116, 72 h.
A short description of test [4]: Cytotoxicity against human MOLT4 cells assessed as reduction in cell viability after 72 hrs by MTT assay. In kind it is functional, cell-based. To be noted: MOLT-4, 72 h.
Test [5] deals with T1, DNA topoisomerase 1 (Homo sapiens) (UniProt P11387).
T1 sequence (whole entry): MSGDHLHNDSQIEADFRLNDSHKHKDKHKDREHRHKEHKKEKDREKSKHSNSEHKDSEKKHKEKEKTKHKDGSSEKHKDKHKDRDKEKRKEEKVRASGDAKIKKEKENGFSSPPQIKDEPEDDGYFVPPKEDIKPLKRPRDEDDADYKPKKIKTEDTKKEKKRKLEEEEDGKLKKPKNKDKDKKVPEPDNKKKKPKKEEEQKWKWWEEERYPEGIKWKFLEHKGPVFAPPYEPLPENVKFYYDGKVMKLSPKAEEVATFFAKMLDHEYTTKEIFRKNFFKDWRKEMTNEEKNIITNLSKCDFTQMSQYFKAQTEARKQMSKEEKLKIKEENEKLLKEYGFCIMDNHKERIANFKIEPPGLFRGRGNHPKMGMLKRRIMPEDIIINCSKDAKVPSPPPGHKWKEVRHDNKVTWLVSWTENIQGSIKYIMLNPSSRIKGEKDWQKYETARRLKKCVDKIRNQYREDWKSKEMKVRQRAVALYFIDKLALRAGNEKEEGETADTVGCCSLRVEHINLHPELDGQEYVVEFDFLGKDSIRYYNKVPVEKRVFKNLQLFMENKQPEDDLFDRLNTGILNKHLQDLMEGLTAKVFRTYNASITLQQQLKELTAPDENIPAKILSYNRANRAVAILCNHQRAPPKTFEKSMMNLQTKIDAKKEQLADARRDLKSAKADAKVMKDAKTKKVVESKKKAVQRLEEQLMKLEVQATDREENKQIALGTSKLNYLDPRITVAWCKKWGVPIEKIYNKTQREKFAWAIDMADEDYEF
Description: Inhibition of human recombinant topoisomerase 1-mediated relaxation of supercoiled pBS (SK+) DNA at 60 uM after 30 mins by ethidium bromide staining based agarose gel electrophoresis.

Test [6] addresses DNA topoisomerase 2-alpha (Homo sapiens) (UniProt P11388). The experiment in a line: Inhibition of human recombinant topoisomerase 2-mediated relaxation of supercoiled pBS (SK+) DNA at 60 uM after 30 mins by ethidium bromide staining based agarose gel electrophoresis.
The target of test [7] is T1, DNA topoisomerase 1 (Homo sapiens). The experiment in a line: Poisoning activity at human recombinant topoisomerase 1 assessed as stabilization of enzyme-supercoiled pBS (SK+) DNA complex at 60 uM after 30 mins by ethidium bromide staining based agarose gel electrophoresis.
Test [8] has as its target DNA topoisomerase 2-alpha (Homo sapiens) (UniProt P11388). Description: Poisoning activity at human recombinant topoisomerase 2 assessed as stabilization of enzyme-supercoiled pBS (SK+) DNA complex at 60 uM after 30 mins by ethidium bromide staining based agarose gel electrophoresis.
For test [9], the target named is T1, DNA topoisomerase 1 (Homo sapiens). Description: Poisoning activity at topoisomerase 1 in human MCF7 cells at 10 uM after 12 hrs by immunoband depletion assay. In kind it is cell-based.
Test [10] has as its target DNA topoisomerase 2-alpha (Homo sapiens) (UniProt P11388). The experiment in a line: Poisoning activity at topoisomerase 2 in human MCF7 cells at 10 uM after 12 hrs by immunoband depletion assay. In kind it is cell-based.
Test [11] addresses T1, DNA topoisomerase 1 (Homo sapiens). The experiment in a line: Inhibition of CPT mediated formation of topoisomerase 1-supercoiled pBS (SK+) DNA complex in human MCF7 cells at 10 uM preincubated for 2 hrs followed by CPT addition measured after 4 to 12 hrs by immunoband depletion assay. In kind it is cell-based.
The target in test [12] is DNA topoisomerase 2-alpha (Homo sapiens) (UniProt P11388). The experiment in a line: Inhibition of ETO mediated formation of topoisomerase 2-supercoiled pBS (SK+) DNA complex in human MCF7 cells at 10 uM preincubated for 2 hrs followed by ETO addition measured after 4 to 12 hrs by immunoband depletion assay. In kind it is cell-based.
Test [13] relates to MCF7. The experiment in a line: Induction of apoptosis in human MCF7 cells assessed as early apoptotic cells at 11.33 uM after 24 hrs by Annexin-V-FITC/propidium iodide staining based flow cytometry (reference value: 2.3 %). Format: functional.
In test [14] the test system is MCF7. Description: Induction of apoptosis in human MCF7 cells assessed as late apoptotic cells at 11.33 uM after 24 hrs by Annexin-V-FITC/propidium iodide staining based flow cytometry (reference value: 0.1 %). Format: functional. (A flow cytometer gives signals particle by particle.)
Test [15] concerns MCF7. Description: Induction of mitochondrial membrane depolarization in human MCF7 cells at 11.33 uM after 48 hrs by JC-1 staining based FACS assay (reference value: 9.9 %). Format: functional.
The subject of test [16] is MCF7. Description: Cell cycle arrest in human MCF7 cells assessed as accumulation at G2/M phase at 11.33 uM after 24 hrs by propidium iodide staining based flow cytometry (reference value: 25 %). In kind it is functional.
Test [17] concerns MCF7. The experiment in a line: Cell cycle arrest in human MCF7 cells assessed as accumulation at G0/G1 phase at 11.33 uM after 48 hrs by propidium iodide staining based flow cytometry (reference value: 59.7 %). In kind it is functional.
The subject of test [18] is MCF7. Description: Induction of apoptosis in human MCF7 cells assessed as rounded cells at 11.33 uM after 24 hrs by inverted phase contrast microscopy. In kind it is functional, cell-based.
Test [19] deals with MCF7. Description: Induction of mitochondrial membrane depolarization in human MCF7 cells at 11.33 uM by JC-1 staining based FACS assay. As to conditions: TDE = time-dependent effect. Format: functional, cell-based.
For test [20], the system named is MCF7. The experiment in a line: Induction of mitochondrial membrane depolarization in human MCF7 cells assessed as ratio of red to green fluorescence at 11.33 uM after 24 hrs by JC-1 staining based FACS assay (reference value: 9.1). Format: functional.
Test [21] relates to MCF7. The experiment in a line: Induction of apoptosis in human MCF7 cells assessed as early apoptotic cells at 8.27 uM after 24 hrs by Annexin-V-FITC/propidium iodide staining based flow cytometry (reference value: 2.3 %). In kind it is functional.
Test [22] has as its system MCF7. Description: Induction of apoptosis in human MCF7 cells assessed as late apoptotic cells at 8.27 uM after 24 hrs by Annexin-V-FITC/propidium iodide staining based flow cytometry (reference value: 0.1 %). Format: functional.
Test [23] concerns MCF7. The experiment in a line: Induction of apoptosis in human MCF7 cells assessed as necrotic cells at 8.27 uM after 48 hrs by Annexin-V-FITC/propidium iodide staining based flow cytometry (reference value: 0.4 %). In kind it is functional.
The test system of test [24] is MCF7. The experiment in a line: Induction of mitochondrial membrane depolarization in human MCF7 cells at 8.27 uM after 24 hrs by JC-1 staining based FACS assay (reference value: 9.9 %). In kind it is functional.
For test [25], the system named is MCF7. The experiment in a line: Induction of apoptosis in human MCF7 cells assessed as caspase 9 cleavage at 8.27 uM after 48 hrs by Western blot analysis. In kind it is functional, cell-based. Background: A western blot detects proteins with antibodies after separation by electrophoresis.
Test [26] deals with MCF7. Description: Induction of apoptosis in human MCF7 cells assessed as caspase 7 cleavage at 8.27 uM after 48 hrs by Western blot analysis. Format: functional, cell-based.
For test [27], the system named is MCF7. The experiment in a line: Cell cycle arrest in human MCF7 cells assessed as accumulation at G2/M phase at 8.27 uM after 24 hrs by propidium iodide staining based flow cytometry (reference value: 25 %). In kind it is functional.
In test [28] the test system is MCF7. Description: Induction of ROS accumulation in human MCF7 cells at 8.27 uM after 24 hrs by CM-H2-DCFDA probe based flow cytometry (reference value: 12.6 %). In kind it is functional.

DNA topoisomerase 2-alpha (Homo sapiens), sequence (P11388 whole entry): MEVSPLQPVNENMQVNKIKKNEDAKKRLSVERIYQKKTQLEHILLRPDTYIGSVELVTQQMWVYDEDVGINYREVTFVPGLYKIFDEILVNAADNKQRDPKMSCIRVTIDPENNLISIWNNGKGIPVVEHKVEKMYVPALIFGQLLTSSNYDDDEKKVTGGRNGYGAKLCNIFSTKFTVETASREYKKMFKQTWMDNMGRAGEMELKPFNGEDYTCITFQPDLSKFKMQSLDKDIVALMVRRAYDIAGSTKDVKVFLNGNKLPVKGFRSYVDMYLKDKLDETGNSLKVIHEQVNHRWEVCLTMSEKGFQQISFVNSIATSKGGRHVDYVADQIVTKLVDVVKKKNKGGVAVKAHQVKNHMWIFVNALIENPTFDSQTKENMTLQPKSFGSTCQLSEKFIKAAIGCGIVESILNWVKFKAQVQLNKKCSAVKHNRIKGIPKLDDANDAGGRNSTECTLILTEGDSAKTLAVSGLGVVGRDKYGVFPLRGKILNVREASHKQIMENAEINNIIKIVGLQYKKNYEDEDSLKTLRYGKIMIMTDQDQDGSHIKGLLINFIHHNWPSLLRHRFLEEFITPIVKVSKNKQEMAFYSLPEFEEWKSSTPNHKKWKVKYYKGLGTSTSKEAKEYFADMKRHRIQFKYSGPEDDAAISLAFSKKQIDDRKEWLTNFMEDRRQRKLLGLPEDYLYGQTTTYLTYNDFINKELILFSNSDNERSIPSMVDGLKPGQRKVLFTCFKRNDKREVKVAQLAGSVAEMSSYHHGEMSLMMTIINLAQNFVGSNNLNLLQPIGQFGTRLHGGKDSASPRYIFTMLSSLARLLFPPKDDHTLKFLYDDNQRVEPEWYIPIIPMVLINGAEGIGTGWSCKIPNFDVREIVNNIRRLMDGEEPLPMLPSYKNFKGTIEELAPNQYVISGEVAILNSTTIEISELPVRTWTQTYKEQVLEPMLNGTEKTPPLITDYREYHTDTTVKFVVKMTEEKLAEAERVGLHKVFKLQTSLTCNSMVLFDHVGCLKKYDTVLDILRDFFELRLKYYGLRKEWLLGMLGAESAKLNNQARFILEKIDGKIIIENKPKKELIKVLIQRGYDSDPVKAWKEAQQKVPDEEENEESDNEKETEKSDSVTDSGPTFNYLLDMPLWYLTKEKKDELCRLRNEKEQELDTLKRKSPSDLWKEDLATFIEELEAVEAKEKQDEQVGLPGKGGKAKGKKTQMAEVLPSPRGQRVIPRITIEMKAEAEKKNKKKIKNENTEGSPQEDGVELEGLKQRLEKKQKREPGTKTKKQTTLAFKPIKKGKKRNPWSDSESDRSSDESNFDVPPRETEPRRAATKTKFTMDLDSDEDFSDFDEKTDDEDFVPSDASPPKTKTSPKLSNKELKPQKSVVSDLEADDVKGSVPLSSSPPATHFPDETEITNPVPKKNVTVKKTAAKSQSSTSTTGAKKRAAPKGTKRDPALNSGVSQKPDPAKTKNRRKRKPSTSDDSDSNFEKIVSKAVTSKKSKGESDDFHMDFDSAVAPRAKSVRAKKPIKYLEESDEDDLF

Take `CC1(C)CC[C@]2(C(=O)O)CC[C@]3(C)C(=CC[C@@H]4[C@@]5(C)CC[C@H](O[C@@H]6O[C@H](C(=O)O)[C@@H](O)[C@H](O)[C@H]6O)C(C)(C)[C@@H]5CC[C@]43C)[C@@H]2C1`: the concentration for half-maximal inhibition (IC50) in the test with MCF7 [1] stood at 11.3 µM; in test [2], 11.9 µM; in test [3], 18 µM; in test [4], 13.3 µM. For the same compound, the inhibition result in [5], in [6], in [11] and in [12] was “Active” throughout. Besides, the result in test [7], in [8], in test [9] and in test [10] was inactive. For the same compound, the Activity with MCF7 [13] was 11.6%; in the test with MCF7 [14], 0.2%; with MCF7 [15], 54.9%; with MCF7 [16] it was 24.3%; in the test with MCF7 [17], 35.1%; with MCF7 [19] it was “tde”. For the same compound, the result in the test on MCF7 [18] was Active. In addition, the Ratio in the test with MCF7 [20] stood at 6.14.

Turning to `C[C@@H]1CC[C@@]2(OC1)O[C@H]1C[C@H]3[C@@H]4CC[C@H]5C[C@@H](O[C@@H]6O[C@H](CO)[C@H](O[C@@H]7O[C@H](CO)[C@@H](O)[C@H](O[C@@H]8OC[C@@H](O)[C@H](O)[C@H]8O)[C@H]7O[C@@H]7O[C@H](CO)[C@@H](O)[C@H](O)[C@H]7O)[C@H](O)[C@H]6O)CC[C@]5(C)[C@H]4CC[C@]3(C)[C@H]1[C@@H]2C` [DEGALACTOTIGONIN], the IC50 in the test with MCF7 [1] worked out at 8.27 µM; in test [2], 9.33 µM; in test [3], 15.4 µM; in test [4] it was 11.7 µM. Also, the inhibition entry in test [5], in [6], in [11] and in test [12] was “Active” throughout. The result in [7], in test [8], in [9] and in [10] was inactive. Also, the Activity was found to be 5.5% in the test on MCF7 [21]; 0.5% in the test on MCF7 [22]; 0% with MCF7 [23]; 9% with MCF7 [24]; 28.5% in the test with MCF7 [27]; 99.9% in the test with MCF7 [28]. The result in the test with MCF7 [25] and with MCF7 [26] was Active.
